{"source": "paper PMC10439310", "about": "(Nature microbiology, 2022)", "tested_on": "inosine-5’-monophosphate dehydrogenase (IMPDH, gene: guaB)", "type": "binding, Bacillus anthracis", "settings": "[32P]-Ap4A, lysates of E. coli overexpressing B. anthracis ORFs", "data": [{"smiles": "Nc1ncnc2c1ncn2[C@@H]1O[C@H](COP(=O)(O)OP(=O)(O)OP(=O)(O)OP(=O)(O)OC[C@H]2O[C@@H](n3cnc4c(N)ncnc43)[C@H](O)[C@@H]2O)[C@@H](O)[C@H]1O", "note": "[Ap4A, diadenosine 5’,5’’’-P1,P4-tetraphosphate]", "values": [{"measurement": "binding in DRaCALA screen (in words)", "result": "putative Ap4A-binding partner"}]}]}
